Key:
[1] = biological target: T1, Kinesin-like protein KIF23 (Homo sapiens) (UniProt Q02241); assay: Inhibition of MKLP1 at 10 uM by puruvate kinsase-lactate dehydrogenase detection system
T1 sequence (whole entry): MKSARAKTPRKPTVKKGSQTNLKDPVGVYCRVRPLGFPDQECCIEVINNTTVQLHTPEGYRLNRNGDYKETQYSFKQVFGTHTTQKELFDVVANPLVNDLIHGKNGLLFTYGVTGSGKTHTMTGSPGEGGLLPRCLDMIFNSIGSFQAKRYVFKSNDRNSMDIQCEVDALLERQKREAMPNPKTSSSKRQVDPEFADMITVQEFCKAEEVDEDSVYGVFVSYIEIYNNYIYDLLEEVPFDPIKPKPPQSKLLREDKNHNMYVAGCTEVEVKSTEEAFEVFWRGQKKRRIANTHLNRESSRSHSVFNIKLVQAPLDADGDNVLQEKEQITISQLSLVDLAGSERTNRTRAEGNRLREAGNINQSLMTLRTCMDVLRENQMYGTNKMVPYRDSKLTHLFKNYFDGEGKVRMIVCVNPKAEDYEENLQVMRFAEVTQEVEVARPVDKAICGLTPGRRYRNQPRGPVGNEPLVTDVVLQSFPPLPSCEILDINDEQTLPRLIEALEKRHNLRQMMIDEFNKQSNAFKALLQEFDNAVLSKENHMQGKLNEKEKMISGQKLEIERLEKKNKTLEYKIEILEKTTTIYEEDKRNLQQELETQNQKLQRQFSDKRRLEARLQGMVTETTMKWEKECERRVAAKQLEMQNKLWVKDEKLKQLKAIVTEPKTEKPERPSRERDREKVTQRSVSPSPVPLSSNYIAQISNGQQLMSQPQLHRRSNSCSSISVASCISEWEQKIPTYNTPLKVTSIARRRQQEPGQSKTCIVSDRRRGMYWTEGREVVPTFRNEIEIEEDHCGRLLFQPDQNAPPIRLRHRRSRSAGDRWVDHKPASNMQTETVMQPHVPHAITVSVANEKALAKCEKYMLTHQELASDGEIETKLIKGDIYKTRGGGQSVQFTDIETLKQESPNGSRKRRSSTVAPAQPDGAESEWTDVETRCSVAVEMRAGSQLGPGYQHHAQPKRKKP

[2] = biological target: T2, Chromosome-associated kinesin KIF4A (Homo sapiens) (UniProt O95239); assay: Inhibition of Kif4 at 10 uM by puruvate kinsase-lactate dehydrogenase detection system
T2 sequence (whole entry): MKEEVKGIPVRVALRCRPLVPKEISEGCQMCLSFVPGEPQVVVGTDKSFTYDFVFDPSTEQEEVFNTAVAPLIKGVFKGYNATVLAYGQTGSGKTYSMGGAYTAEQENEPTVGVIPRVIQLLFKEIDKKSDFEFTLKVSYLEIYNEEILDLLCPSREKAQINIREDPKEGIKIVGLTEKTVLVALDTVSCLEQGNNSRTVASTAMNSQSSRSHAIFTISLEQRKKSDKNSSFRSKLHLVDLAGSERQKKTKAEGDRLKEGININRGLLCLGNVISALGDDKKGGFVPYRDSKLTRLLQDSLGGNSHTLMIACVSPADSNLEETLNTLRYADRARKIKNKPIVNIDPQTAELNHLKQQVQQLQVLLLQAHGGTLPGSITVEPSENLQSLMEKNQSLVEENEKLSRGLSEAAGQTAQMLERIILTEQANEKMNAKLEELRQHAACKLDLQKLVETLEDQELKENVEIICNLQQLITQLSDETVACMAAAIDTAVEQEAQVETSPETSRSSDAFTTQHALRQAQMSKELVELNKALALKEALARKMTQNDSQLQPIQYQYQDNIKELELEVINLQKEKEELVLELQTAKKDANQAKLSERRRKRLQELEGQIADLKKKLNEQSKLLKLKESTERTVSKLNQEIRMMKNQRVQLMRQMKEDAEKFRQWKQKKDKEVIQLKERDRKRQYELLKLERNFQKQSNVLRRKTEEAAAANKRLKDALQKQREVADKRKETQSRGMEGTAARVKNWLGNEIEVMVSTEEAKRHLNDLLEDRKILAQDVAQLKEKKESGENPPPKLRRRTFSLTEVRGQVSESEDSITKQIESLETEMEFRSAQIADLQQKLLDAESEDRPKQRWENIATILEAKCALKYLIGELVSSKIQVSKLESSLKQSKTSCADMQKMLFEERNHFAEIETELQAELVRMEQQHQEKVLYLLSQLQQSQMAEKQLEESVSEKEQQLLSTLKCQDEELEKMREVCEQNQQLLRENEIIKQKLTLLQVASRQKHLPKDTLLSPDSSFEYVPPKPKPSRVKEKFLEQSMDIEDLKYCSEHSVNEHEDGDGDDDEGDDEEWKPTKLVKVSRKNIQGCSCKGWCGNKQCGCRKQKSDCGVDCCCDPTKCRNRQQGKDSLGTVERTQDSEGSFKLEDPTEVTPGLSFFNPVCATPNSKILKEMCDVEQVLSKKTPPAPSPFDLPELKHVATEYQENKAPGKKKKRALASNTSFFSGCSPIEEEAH

[3] = biological target: T3, Kinesin-like protein KIFC1 (Homo sapiens) (UniProt Q9BW19); assay: Inhibition of HSET at 10 uM by puruvate kinsase-lactate dehydrogenase detection system
T3 sequence (whole entry): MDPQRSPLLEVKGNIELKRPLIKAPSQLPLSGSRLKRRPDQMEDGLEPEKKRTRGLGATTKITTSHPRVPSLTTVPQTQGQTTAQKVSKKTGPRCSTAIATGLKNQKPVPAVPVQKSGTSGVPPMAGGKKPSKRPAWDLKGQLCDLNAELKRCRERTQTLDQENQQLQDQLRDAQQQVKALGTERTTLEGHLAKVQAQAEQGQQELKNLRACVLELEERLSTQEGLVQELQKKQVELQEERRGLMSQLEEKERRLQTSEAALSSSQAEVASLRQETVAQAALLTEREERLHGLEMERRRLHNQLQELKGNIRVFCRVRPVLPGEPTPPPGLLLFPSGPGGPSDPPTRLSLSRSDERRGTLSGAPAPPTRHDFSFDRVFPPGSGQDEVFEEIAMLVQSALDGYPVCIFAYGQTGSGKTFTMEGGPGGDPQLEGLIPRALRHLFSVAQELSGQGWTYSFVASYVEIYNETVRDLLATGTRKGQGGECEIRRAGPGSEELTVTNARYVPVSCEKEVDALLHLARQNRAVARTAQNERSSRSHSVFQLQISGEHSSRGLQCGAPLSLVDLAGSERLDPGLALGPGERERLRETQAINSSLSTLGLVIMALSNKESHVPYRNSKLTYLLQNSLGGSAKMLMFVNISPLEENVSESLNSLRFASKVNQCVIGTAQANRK

Question: For Cc1ccc(C(=O)N(CCCN)[C@@H](c2nc3cc(Cl)ccc3c(=O)n2Cc2ccccc2)C(C)C)cc1, which inhibition [1] is on record?
Answer: 7.1%

Question: What about the inhibition [2] of the same compound?
Answer: 4.3%

Question: What about the inhibition [3] of the same compound?
Answer: 4.2%

Question: For NC(=O)Nc1ccc(-c2ccc(C(F)(F)F)cc2)cc1F, which inhibition [1] is on record?
Answer: 9.4%

Question: And the inhibition [2]?
Answer: 8.2%

Question: What about the inhibition [3] of the same compound?
Answer: 2.6%

Question: O=C1CCc2cc(-c3ccc(C(F)(F)F)cc3)ccc2N1 was tested. Which inhibition [1] did it give?
Answer: 7.7%

Question: And the inhibition [2]?
Answer: 6.5%

Question: And the inhibition [3]?
Answer: 4.1%

Reference: ChEMBL document CHEMBL1221208, “ATP-competitive inhibitors of the mitotic kinesin KSP that function via an allosteric mechanism” (Nat Chem Biol, 2007)
